Measured values taken from patent US6143492A, “Optical molecular sensors for cytochrome P450 activity” (Aurora Biosciences Corporation, priority 1999, dated 2000).
Each block holds one molecule with its values, some of them ahead of it.

What was measured:
CYP 2C9 = CYP 2C9 (Homo sapiens, UniProt P11712); assay: Kinetics of fluorogenic substrates with CYP 2C9; format: biochemical
CYP 2B6 = target: T1, CYP 2B6 (Homo sapiens, UniProt P20813); assay: Kinetics of fluorogenic substrates with CYP 2B6; details: for v (1.25 uM), turnover rate at 1.25 μM: CYP 2B6, substrate 1.25 uM; for v (10 uM), turnover rate at 10 μM: CYP 2B6, substrate 10 uM
T1 sequence (P20813 1-491): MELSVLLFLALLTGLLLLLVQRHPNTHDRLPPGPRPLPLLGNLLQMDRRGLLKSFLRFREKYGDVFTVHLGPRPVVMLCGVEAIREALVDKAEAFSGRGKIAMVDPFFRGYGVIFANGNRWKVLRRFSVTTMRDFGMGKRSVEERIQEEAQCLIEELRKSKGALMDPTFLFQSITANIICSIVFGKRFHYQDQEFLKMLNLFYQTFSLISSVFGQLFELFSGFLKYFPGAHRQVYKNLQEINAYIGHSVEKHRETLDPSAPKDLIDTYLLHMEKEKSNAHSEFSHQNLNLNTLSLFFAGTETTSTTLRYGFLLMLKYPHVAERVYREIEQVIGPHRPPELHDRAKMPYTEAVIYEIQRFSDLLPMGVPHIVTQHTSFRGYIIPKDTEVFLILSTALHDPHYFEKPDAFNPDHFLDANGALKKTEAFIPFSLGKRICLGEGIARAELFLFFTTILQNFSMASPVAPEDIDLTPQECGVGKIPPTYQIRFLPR

CYP 3A4 [1] = target: T2, CYP 3A4 (Homo sapiens, UniProt P08684); assay: Kinetics of fluorogenic substrates with CYP 3A4; format: biochemical
T2 construct: NADPH regenerating system
Source text: Whichever of the four abstractable hydrogen atoms (designated H^1 and H^2 in this representation of BOMR) is removed in the initial reaction step, with reference to Reaction Scheme 1 of FIG. 1, the hydroxylation product will spontaneously decompose to the free resorufin dye. In addition, the benzyloxy group, attached to the carbon carrying the two hydrogens designated H^2, contributes an inductive electronic effect on that carbon, which can stabilize the radical formed during abstraction of one of the H^2 hydrogens by a cytochrome P450.
Optimization of assay conditions was, and is preferably, accomplished through statistically validated Design of Experiments methodologies, using the commercial software package "Design-Expert®" produced by Stat-Ease® Inc. The data shown in FIGS. 4 and 5 were obtained with initial optimization.
For further understanding these terms in the context of this invention, attention is directed to FIG. 4 and the analysis of FIG. 4.

CYP 2D6 = CYP 2D6 (Homo sapiens, UniProt P10635); assay: in vitro
Procedure: CYP 2D6 was incubated with 10 μM concentrations of various known inhibitors and drug substrates and residual CYP 2D6 activity assayed with the fluorogenic substrate MOBFC. The assay was performed in a 96-well plate at room temp and at a volume of 100 μl/well. 4×enzyme buffer was prepared and 25 μl was added to each well on the plate, for final assay concentrations of 3.3 mM glucose-6-phosphate, 0.4 units/ml glucose-6-phosphate dehydrogenase and 10 mM MgCl2 in 100 mM K+ phosphate, pH 8.0. […] Six consecutive 1:3 dilutions were made and 50 μl of each was added to appropriate wells on the assay plate. The CYP2D6 was diluted to a solution of 2 pmol/10 μl in 100 mM K+ phosphate and 10 μl was added to each well. 20 μl of buffer was added to each well containing standard. The drug inhibitors were allowed to pre-incubated with the CYP 2D6 enzyme for 1 hr prior to the addition of the MOBFC substrate. […] Hydroxy-trifluoro-methylcoumarin was diluted to 100 μM in K+ phosphate buffer, and seven consecutive 1:2 dilutions were made. 10 μl of each dilution was added to the appropriate wells on the plate containing 90 μl of 100 mM K+ phosphate, pH 8.0.

CYP 3A4 [2] = target: T2, CYP 3A4; assay: Rate of hydroxylation of BOM-09B by CYP 3A4; format: biochemical
Procedure: The racemic compound mixture (designated BOM-09B) was tested for activity with cytochrome P450 isozymes. […] The CYP 3A4 assay was performed in a 96-well plate at 37° C. in a volume of 100 μL/well. BOM-09B was diluted from a stock solution of 1 mM in acetonitrile to a 4×concentration of 80 μM in 100 mM K+ phosphate buffer of which 25 μl was added to the appropriate wells. […] The cytochrome P450 isozyme CYP3A4 was diluted to give a 2 pmol enzyme per well. Enzymic conversion of the substrate to products was allowed to proceed for 1 hour with fluorescence reads taken every 4 minutes on a fluorescence microtiter plate reader. The solution was illuminated with an 395/25 nm excitation filter and fluorescence emission was detected through a 460/40 nm the emission filter.

[3] = substrate: COc1ccc2c(C(F)(F)F)cc(=O)oc2c1; assay: Kinetics of fluorogenic substrates with CYP 2D6; format: biochemical, human; details: other: CYP 2D6
[4] = substrate: COCOc1ccc2c(C(F)(F)F)cc(=O)oc2c1; assay: Kinetics of fluorogenic substrates with CYP 2C9; format: biochemical, human; details: other: CYP 2C9
[5] = substrate: COc1ccc2c(C(F)(F)F)cc(=O)oc2c1; assay: Kinetics of fluorogenic substrates with CYP 2C9; format: biochemical, human; details: other: CYP 2C9
[6] = substrate: N#Cc1cc2ccc(OCOCc3ccccc3)cc2oc1=O; assay: Kinetics of fluorogenic substrates with CYP 2C9; format: biochemical, human; details: other: CYP 2C9

T2 sequence (P08684 whole entry): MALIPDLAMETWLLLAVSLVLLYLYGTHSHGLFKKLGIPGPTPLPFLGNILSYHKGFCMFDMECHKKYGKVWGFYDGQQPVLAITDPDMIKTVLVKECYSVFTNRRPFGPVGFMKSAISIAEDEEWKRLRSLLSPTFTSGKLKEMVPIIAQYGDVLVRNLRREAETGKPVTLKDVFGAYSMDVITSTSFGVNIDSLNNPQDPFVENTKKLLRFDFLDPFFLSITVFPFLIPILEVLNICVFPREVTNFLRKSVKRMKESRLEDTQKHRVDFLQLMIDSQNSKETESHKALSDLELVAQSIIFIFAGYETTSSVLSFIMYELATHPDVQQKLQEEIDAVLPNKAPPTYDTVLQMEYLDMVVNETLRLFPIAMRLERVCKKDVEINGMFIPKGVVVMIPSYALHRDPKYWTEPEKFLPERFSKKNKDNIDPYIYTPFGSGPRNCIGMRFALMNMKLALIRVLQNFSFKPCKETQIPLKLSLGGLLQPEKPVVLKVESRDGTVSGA

Molecule: CC(C)NC[C@H](O)COc1cccc2ccccc12 (racemic) [Propanolol]
Ki (CYP 2D6; human, cyp 2d6, pH 8): > 30 µM

B1: CYP 2D6 (Homo sapiens) (protein)
chain: MGLEALVPLAVIVAIFLLLVDLMHRRQRWAARYPPGPLPLPGLGNLLHVDFQNTPYCFDQLRRRFGDVFSLQLAWTPVVVLNGLAAVREALVTHGEDTADRPPVPITQILGFGPRSQGVFLARYGPAWREQRRFSVSTLRNLGLGKKSLEQWVTEEAACLCAAFANHSGRPFRPNGLLDKAVSNVIASLTCGRRFEYDDPRFLRLLDLAQEGLKEESGFLREVLNAVPVLLHIPALAGKVLRFQKAFLTQLDELLTEHRMTWDPAQPPRDLTEAFLAEMEKAKGNPESSFNDENLRIVVADLFSAGMVTTSTTLAWGLLLMILHPDVQRRVQQEIDDVIGQVRRPEMGDQAHMPYTTAVIHEVQRFGDIVPLGVTHMTSRDIEVQGFRIPKGTTLITNLSSVLKDEAVWEKPFRFHPEHFLDAQGHFVKPEAFLPFSAGRRACLGEPLARMELFLFFTSLLQHFSFSVPTGQPRPSHHGVFAFLVSPSPYELCAVPR
Km [3]: 10.0 µM
kcat/Km [3]: 417 M⁻¹ s⁻¹

B2: CYP 2C9 (Homo sapiens) (protein)
chain: MDSLVVLVLCLSCLLLLSLWRQSSGRGKLPPGPTPLPVIGNILQIGIKDISKSLTNLSKVYGPVFTLYFGLKPIVVLHGYEAVKEALIDLGEEFSGRGIFPLAERANRGFGIVFSNGKKWKEIRRFSLMTLRNFGMGKRSIEDRVQEEARCLVEELRKTKASPCDPTFILGCAPCNVICSIIFHKRFDYKDQQFLNLMEKLNENIKILSSPWIQICNNFSPIIDYFPGTHNKLLKNVAFMKSYILEKVKEHQESMDMNNPQDFIDCFLMKMEKEKHNQPSEFTIESLENTAVDLFGAGTETTSTTLRYALLLLLKHPEVTAKVQEEIERVIGRNRSPCMQDRSHMPYTDAVVHEVQRYIDLLPTSLPHAVTCDIKFRNYLIPKGTTILISLTSVLHDNKEFPNPEMFDPHHFLDEGGNFKKSKYFMPFSAGKRICVGEALAGMELFLFLTSILQNFNLKSLVDPKNLDTTPVVNGFASVPPFYQLCFIPV
Km [4]: 14.9 µM
kcat/Km [4]: 157 M⁻¹ s⁻¹
Km [5]: 103.0 µM
kcat [5]: 0.0067 s⁻¹
kcat/Km [5]: 70 M⁻¹ s⁻¹
Km [6]: 3.0 µM
kcat/Km [6]: 814 M⁻¹ s⁻¹

More lines, now with the values ahead:

conversion to the same fluorescent product vs the most closely structurally-related substrate (CYP 2C9; CYP 2C9): more efficient conversion
kcat (CYP 2C9; CYP 2C9): 0.0017 s⁻¹
type of kinetics (CYP 2C9; CYP 2C9): Michaelis-
v (1.25 uM), turnover rate at 1.25 μM (CYP 2C9; CYP 2C9, substrate 1.25 uM): 0.00 min⁻¹
v (10 uM), turnover rate at 10 μM (CYP 2C9; CYP 2C9, substrate 10 uM): 0.07 min⁻¹
conversion to the same fluorescent product vs the most closely structurally-related substrate (CYP 2B6; CYP 2B6): less efficiently converted
type of kinetics (CYP 2B6; CYP 2B6): not Michaelis-
v (1.25 uM), turnover rate at 1.25 μM (CYP 2B6): 0.54 min⁻¹
v (10 uM), turnover rate at 10 μM (CYP 2B6): 0.71 min⁻¹
Molecule: COCOc1ccc2c(C(F)(F)F)cc(=O)oc2c1 [MOMFC, 7-methyloxymethyloxy-4-trifluoromethylcoumarin]

kcat (CYP 3A4 [1]; CYP 3A4): 0.0017 s⁻¹
kcat/Km (CYP 3A4 [1]; CYP 3A4): 377 M⁻¹ s⁻¹
type of kinetics (CYP 3A4 [1]; CYP 3A4): Michaelis-
turnover rate (kcat) (CYP 3A4 [1]; CYP 3A4, FIG. 4 data): 0.00167 s⁻¹
v (1.25 uM), turnover rate at 1.25 μM (CYP 3A4 [1]; CYP 3A4, substrate 1.25 uM): 0.02 min⁻¹
v (10 uM), turnover rate at 10 μM (CYP 3A4 [1]; CYP 3A4, substrate 10 uM): 0.08 min⁻¹
type of kinetics (CYP 2B6; CYP 2B6): not Michaelis-
v (1.25 uM), turnover rate at 1.25 μM (CYP 2B6): 0.42 min⁻¹
v (10 uM), turnover rate at 10 μM (CYP 2B6): 0.42 min⁻¹
Molecule: O=c1ccc2nc3ccc(OCc4ccccc4)cc3oc-2c1 [BR, Benzylresorufin, reference compound]

Ki (CYP 2D6): > 30 µM
Molecule: CCC1C2CC3C4N(C)c5ccccc5C45CC(C2C5O)N3C1O (centres unmarked) [Amjaline]

activity with the CYP 3A4 isozyme (CYP 3A4 [2]): particularly high activity
conversion rate (CYP 3A4 [2]; 37° C., pH 8.0, 1 hour): 0.75 pmol substrate/pmol enzyme·min
rate of conversion compared with BOMCC (CYP 3A4 [2]; identical conditions): half that of BOMCC
Molecule: NC1CCCCC1NC(=O)c1cc2ccc(OCOCc3ccccc3)cc2oc1=O (racemic) [BOM-09B]
